How the values were obtained:
[1] = system: SH-SY5Y cell line; assay: Mitophagy activity in SH-SY5Y cells expressing mt-Keima (FACS); assay type: cell-based, human; details: FACS (FIG. 2A)
Procedure: It was confirmed whether CD1-012 synthesized in Example 1 increases mitophagy activity in various cell lines. To this end, CD1-012 and Comparative Example 1 (CCCP) were treated in the SH-SY5Y cell line, a human neuroblastoma cell line expressing mt-Keima fluorescent protein, and in the HeLa-Parkin cell line, a HeLa cervical cancer cell line expressing Parkin (E3 ligase). Following this treatment, the mitophagy activity of each sample was analyzed using flow cytometry (FACS), and the results are shown in FIGS. 2A to 2B.

[2] = system: PINK1-deficient MEFs; assay: Mitochondrial function in PINK1-deficient MEFs (TMRM, MitoSOX-Red, ATP production); assay type: cell-based, mouse; details: 40 μM for 24 hours
Procedure: Subsequently, PINK1-deficient MEFs were treated with CD1-012 at a concentration of 40 μM for 24 hours, and 4 days later, mitochondrial function as analyzed. The mitochondrial membrane potential was analyzed by the tetramethyl rhodamine methyl ester (TMRM) assay, and mitochondrial ROS was analyzed using the MitoSOX-Red assay. […] Conversely, the level of mitochondrial ROS, which was elevated compared to the wild-type cells, was reduced by CD1-012 treatment (FIG. 8D).

[3] = system: human nerve cell line H-SY5Y; assay: Mitochondrial function in sporadic Parkinson's disease cell model (MPP+ or 6-OHDA); assay type: cell-based; details: CD1-012 20 μM one day
Procedure: Sporadic Parkinson's disease has progressive motor/non-motor dysfunction symptoms, and most patients with Parkinson's disease have this disease. In this example, the therapeutic effect of CD1-012 on sporadic Parkinson's disease was confirmed. To this end, after a sporadic Parkinson's disease cell model was manufactured by treating a human nerve cell line H-SY5Y with the neurotoxins MPP+(62.5 μM) and 6-OHDA (40 μM) for two days, the cell model was treated with CD1-012 (20 μM) for one day and then the membrane potential and ATP production capacity of mitochondria were analyzed after two days.

[4] = system: mouse model of Parkinson's disease established by injecting MPTP; assay: Motor performance (pole test, Rota-rod test) in MPTP mouse model of Parkinson's disease; assay type: in vivo
Procedure: In this example, the effect of the compound of the present invention (CD1-012) on treating Parkinson's disease was confirmed using a mouse model of Parkinson's disease. To this end, a mouse model of Parkinson's disease established by injecting the neurotoxin, 1-methyl-4-phenyl-1,2,3,6-tetrahydropyridine (MPTP), was used. After nasal administration of CD1-012 at a concentration of 1 mg/kg daily for 2 weeks to the mouse model, motor performance was analyzed using the pole test and Rota-rod test (FIG. 11A).

[5] = system: mitochondria from the substantia nigra of the mice; assay: Mitochondrial function in substantia nigra of MPTP mouse model (TMRM, ATP production); assay type: in vivo
Procedure: Subsequently, it was confirmed that the compound CD1-012 of the present invention has an effect of improving mitochondrial dysfunction using an animal model of Parkinson's disease. To this end, after separating mitochondria from the substantia nigra of the mice undergoing the behavioral experiment in Example 4, the membrane potential of mitochondria was analyzed through TMRM (100 nM, 37° C., 30 min) fluorescent staining, and the mitochondrial function was analyzed by measuring ATP production (analyzed for 5 mice per group).

Oc1cc2c(cc1O)-c1cc3ccc(O)c(O)c3c[n+]1CC2 [CD1-012, 2,3,9,10-tetrahydroxy-5,6-dihydroisoquinolino[3,2-a]isoquinolin-7-ium bromide]
mitophagy activity compared to the control group (Con) [1]: significantly increased mitophagy activity
mitochondrial ATP production (reduced in PINK1-deficient cells) ([2]; analyzed 4 days later (FIG. 8E)): restored
level of mitochondrial ROS (elevated in PINK1-deficient cells) ([2]; analyzed 4 days later, MitoSOX-Red (FIG. 8D)): reduced
mitochondrial membrane potential (decreased in PINK1-deficient cells) ([2]; analyzed 4 days later, TMRM (FIG. 8C)): restored
mitochondrial membrane potential ([3]; 6-OHDA (40 μM) model, analyzed after two days (FIG. 10B)): restored
ATP synthesis capacity of mitochondria ([3]; 6-OHDA (40 μM) model, analyzed after two days (FIG. 10D)): significantly restored
mitochondrial membrane potential ([3]; MPP+ (62.5 μM) model, analyzed after two days (FIG. 10A)): restored
ATP synthesis capacity of mitochondria ([3]; MPP+ (62.5 μM) model, analyzed after two days (FIG. 10C)): significantly restored
pole test, motor performance (time to reach the ground) ([4]; MPTP mice, nasal 1 mg/kg daily for 2 weeks (FIG. 11B)): recovered to a level equivalent to that of the normal control
Rota-rod test, time spent on the cylinder ([4]; MPTP mice, nasal 1 mg/kg daily for 2 weeks (FIG. 11C)): markedly recovered
motor performance of normal mice administered CD1-012 alone compared to untreated normal control (toxicity) ([4]; normal mice, CD1-012 alone): no significant difference in motor performance
ATP synthesis capacity of mitochondria in substantia nigra ([5]; MPTP mice coadministered CD1-012 (FIG. 12B)): restoration
membrane potential of mitochondria in substantia nigra ([5]; MPTP mice coadministered CD1-012, TMRM (FIG. 12A)): restoration

— patent US20260130894A1, “COMPOSITION COMPRISING ISOQUINOLINE DERIVATIVE AS ACTIVE INGREDIENT FOR PREVENTION OR TREATMENT OF PARKINSON'S DISEASE” (ALTMEDICAL CO., LTD., priority 2022, published 2026)
